Laboratory results from a compilation of properties of binary mixtures (doi:10.1016/j.molliq.2010.03.018).

Assay: xn = mol fraction of the nth substance listed
Details: 101 kPa

## CCOCC(C)O (stereo not drawn) + CCCC[n+]1ccn(C)c1.F[P-](F)(F)(F)(F)F
288.15 K, x1 = 0.0532
  speed of sound: 1462 m/s
288.15 K, x1 = 0.172
  speed of sound: 1449.6 m/s
288.15 K, x1 = 0.255
  speed of sound: 1437.8 m/s
288.15 K, x1 = 0.5031
  speed of sound: 1390.7 m/s
298.15 K, x1 = 0.0532
  speed of sound: 1437 m/s
298.15 K, x1 = 0.172
  speed of sound: 1424.7 m/s
298.15 K, x1 = 0.255
  speed of sound: 1412.6 m/s
298.15 K, x1 = 0.3298
  speed of sound: 1399.7 m/s
298.15 K, x1 = 0.5031
  speed of sound: 1363.1 m/s
298.15 K, x1 = 0.6555
  speed of sound: 1325.5 m/s
298.15 K, x1 = 0.9
  speed of sound: 1260.4 m/s
298.15 K, x1 = 0.9474
  speed of sound: 1247.7 m/s
308.15 K, x1 = 0.0532
  speed of sound: 1414.1 m/s
308.15 K, x1 = 0.172
  speed of sound: 1400.1 m/s
308.15 K, x1 = 0.3298
  speed of sound: 1374.8 m/s
308.15 K, x1 = 0.5031
  speed of sound: 1336.2 m/s
308.15 K, x1 = 0.6555
  speed of sound: 1296 m/s
308.15 K, x1 = 0.8423
  speed of sound: 1242.1 m/s
308.15 K, x1 = 0.9
  speed of sound: 1225.4 m/s

## COCC(C)O (stereo not drawn) + CCCC[n+]1ccn(C)c1.F[P-](F)(F)(F)(F)F
288.15 K, x1 = 0.0426
  speed of sound: 1464.5 m/s
288.15 K, x1 = 0.126
  speed of sound: 1458.3 m/s
288.15 K, x1 = 0.2396
  speed of sound: 1449.3 m/s
288.15 K, x1 = 0.5071
  speed of sound: 1420.4 m/s
288.15 K, x1 = 0.6847
  speed of sound: 1390.4 m/s
288.15 K, x1 = 0.9447
  speed of sound: 1322.3 m/s
298.15 K, x1 = 0.0426
  speed of sound: 1439.7 m/s
298.15 K, x1 = 0.126
  speed of sound: 1433.7 m/s
298.15 K, x1 = 0.2396
  speed of sound: 1424.6 m/s
298.15 K, x1 = 0.5071
  speed of sound: 1393.6 m/s
298.15 K, x1 = 0.6847
  speed of sound: 1360.9 m/s
298.15 K, x1 = 0.8536
  speed of sound: 1316.9 m/s
298.15 K, x1 = 0.9447
  speed of sound: 1286.9 m/s
308.15 K, x1 = 0.0426
  speed of sound: 1416.2 m/s
308.15 K, x1 = 0.2396
  speed of sound: 1400.6 m/s
308.15 K, x1 = 0.4116
  speed of sound: 1381.5 m/s
308.15 K, x1 = 0.5071
  speed of sound: 1367.3 m/s
308.15 K, x1 = 0.6847
  speed of sound: 1331.8 m/s
308.15 K, x1 = 0.9447
  speed of sound: 1251.5 m/s

## COCCOCCO + CCCC[n+]1ccn(C)c1.F[P-](F)(F)(F)(F)F
288.15 K, x1 = 0.2217
  speed of sound: 1469 m/s
288.15 K, x1 = 0.3398
  speed of sound: 1473 m/s
288.15 K, x1 = 0.4582
  speed of sound: 1478.1 m/s
288.15 K, x1 = 0.519
  speed of sound: 1480.6 m/s
288.15 K, x1 = 0.6876
  speed of sound: 1484.3 m/s
288.15 K, x1 = 0.9136
  speed of sound: 1474.1 m/s
298.15 K, x1 = 0.1008
  speed of sound: 1443.7 m/s
298.15 K, x1 = 0.3398
  speed of sound: 1448 m/s
298.15 K, x1 = 0.4582
  speed of sound: 1452.2 m/s
298.15 K, x1 = 0.6876
  speed of sound: 1455.5 m/s
298.15 K, x1 = 0.8005
  speed of sound: 1451.5 m/s
298.15 K, x1 = 0.8758
  speed of sound: 1445.7 m/s
298.15 K, x1 = 0.9136
  speed of sound: 1441.7 m/s
308.15 K, x1 = 0.1008
  speed of sound: 1420.3 m/s
308.15 K, x1 = 0.2217
  speed of sound: 1420.8 m/s
308.15 K, x1 = 0.3398
  speed of sound: 1423.5 m/s
308.15 K, x1 = 0.4582
  speed of sound: 1426.6 m/s
308.15 K, x1 = 0.519
  speed of sound: 1427.8 m/s
308.15 K, x1 = 0.8758
  speed of sound: 1414.2 m/s
308.15 K, x1 = 0.9136
  speed of sound: 1409.4 m/s
